{"source": "PubChem BioAssay AID2060611", "about": "(Molecular Pharmacology Branch, DTP, NCI, 2025)", "tested_on": "628569-122-R-J1-PDC complex spheroid viability", "assay": "Anticancer human tumor 628569-122-R-J1-PDC patient-derived head and neck squamous carcinoma cell line growth inhibition [CLK]", "details": "for viability, T/C: stronger effect = lower value", "source_text": "A high-throughput screen of multi-cell type tumor spheroids was designed to identify active combinations of […] and targeted small molecules. Complex spheroids include a stromal component modeled by human endothelial cells (HUVEC) and fibroblasts modeled by human mesenchymal stem cells (MSCs). The concentration ranges selected for each drug and investigational agent were based upon clinically achievable concentrations if the clinical Cmax of the agent was known.\nCompounds. The drugs and investigational agents: cirtuvivint (SM08502; NSC835563), CC-671 (NSC850746), vemurafenib (NSC761431), tapotoclax (NSC804041), sotorasib (NSC818433), adagrasib (NSC831453), MRTX-1133 (NSC836407), BAY2416964 (NSC825713), copanlisib (NSC816437), inavolisib (NSC800729), abemaciclib (NSC768073), osimertinib (NSC779217), entinostat (NSC756642), eltanexor (KPT-8602, NSC794443), venetoclax (NSC766270), ceralasertib (NSC777638), bortezomib (NSC756655), olaparib (NSC753686), talazoparib (NSC767125), alisertib (NSC759677), peposertib (NSC802822), gemcitabine (NSC613327), 5-fluorouracil (NSC19893), SN-38 (NSC673596), oxaliplatin (NSC266046), paclitaxel (NSC125973), and doxorubicin (NSC123127), were obtained from the National Cancer Institute (NCI) Developmental Therapeutics Program Chemical Repository. The FDA-approved anticancer drug set is available from the Developmental Therapeutics Program at https://dtp.cancer.gov/organization/dscb/obtaining/available plates.htm. […] The stock solutions were prepared in dimethyl sulfoxide (DMSO, Sigma-Aldrich, St. Louis, MO, cat. D2650), except for the platinum complexes which were prepared in saline (Quality Biological, Gaithersburg, MD, cat. 114-055-101), at 800-fold the tested concentration and stored at -70 degrees C prior to their use. All drugs and investigational agents were tested over a range starting from a high concentration at or near the clinical Cmax and decreasing in half-log increments. If the clinical Cmax for an agent had not been determined, the highest concentration tested was 10 microM.\nCell Culture. All cells were maintained in an incubator at 37 degrees C and 5% CO2 with 95% humidity. The PDC lines were cultured according to standard operating procedures established by the NCI PDMR. Briefly, all PDCs were thawed and cultured in Matrigel-coated flasks prepared with a working solution of 1X Ham's F-12 nutrient mix, without supplementation (Invitrogen, Waltham, MA, cat. 11765054), 100 U/mL penicillin-streptomycin (Invitrogen, cat. 15140122), and 2.5% Matrigel (Corning Inc., Corning, NY, cat. 354248) for the first three passages. The 947758-054-R-J2-PDC line was cultured in 6B/Colon 1A media, which includes advanced DMEM/F-12 (Thermo Fisher Scientific, cat. 12634028), 10 mM HEPES (Thermo Fisher Scientific, cat. 15630080), 1X GlutaMAX supplement (Thermo Fisher Scientific, cat. 35050061), 0.1 mg/mL primocin (InvivoGen, cat. ant-pm-2), 10% defined fetal bovine serum, heat inactivated (HyClone Laboratories Inc., cat. SH30070.03HI), 1.25 mM N-Acetyl-L-cysteine (Sigma-Aldrich, cat. A9165), 10 mM nicotinamide (Sigma-Aldrich, cat. N0636), 1X B-27 supplement (Thermo Fisher Scientific, cat. 17504044), 1X N-2 supplement (Thermo Fisher Scientific, cat. 17502048), and 10 microM Y-27632 dihydrochloride (Tocris Bioscience, cat. 1254). The 876862-298-R-J1-PDC was cultured in 6E media, which includes all 6B/Colon 1A media components plus 50% L-WRN conditioned media (ATCC, cat. CRL-3276), 50 ng/mL recombinant human EGF recombinant protein (hEGF; Thermo Fisher Scientific, cat. PHG0311), 10 ng/mL recombinant human fibroblast growth factor 10 (hGFG-10; PeproTech, cat. 100-26), 1 ng/mL recombinant human fibroblast growth factor 2 (hFGF-2; PeproTech, cat. 100-18B), and 1 µM prostaglandin E2 (PGE2; Tocris, cat. 2296). The 227483-062-R1-J1-PDC line was cultured in Panc media, containing all 6E components except hFGF-2, with the addition of 500 nM SB-431542 (Selleckchem, cat. S1067) and 10 nM gastrin (Tocris, cat. 3006). […]", "note": "Where “and” joins values, the source holds several entries; their conditions need not be identical. Equal entries are not always repeated.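 Note: spheroids exposed to agents for seven days before readout.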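 Throughout, for viability, T/C: 100% = DMSO vehicle control viability.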", "data": [{"molecule": "CC(=O)O[C@H]1C(=O)[C@@]2(C)[C@H]([C@H](OC(=O)c3ccccc3)[C@]3(O)C[C@H](OC(=O)[C@H](O)[C@@H](NC(=O)c4ccccc4)c4ccccc4)C(C)=C1C3(C)C)[C@]1(OC(C)=O)CO[C@@H]1C[C@@H]2O", "values": [{"measurement": "viability, T/C", "setting": "compound 0.0316 µM", "value": "29.1% and 29.6%"}, {"measurement": "viability, T/C", "setting": "compound 0.1 µM", "value": "30.8% and 26.9%"}, {"measurement": "viability, T/C", "setting": "compound 0.316 µM", "value": "27.4% and 26.9%"}, {"measurement": "viability, T/C", "setting": "compound 1 µM", "value": "27.5% and 24.6%"}, {"measurement": "viability, T/C", "setting": "compound 3.16 µM", "value": "27.2% and 33.9%"}, {"measurement": "viability, T/C", "setting": "compound 10 µM", "value": "44.5% and 41.1%"}, {"measurement": "IC50", "setting": "curve of compound", "value": "< 0.0316", "unit": "µM"}]}, {"molecule": "COc1ccc([C@@H](O)c2cc(-c3ncnc4cc(N5CCOCC5)ccc34)c(F)cc2Cl)nn1", "values": [{"measurement": "viability, T/C", "setting": "compound 0.0316 µM", "value": "79.4% and 79.8%"}, {"measurement": "viability, T/C", "setting": "compound 0.1 µM", "value": "92.1% and 72.9%"}, {"measurement": "viability, T/C", "setting": "compound 0.316 µM", "value": "69.5% and 75.5%"}, {"measurement": "viability, T/C", "setting": "compound 1 µM", "value": "51% and 57.1%"}, {"measurement": "viability, T/C", "setting": "compound 3.16 µM", "value": "41.2% and 39.4%"}, {"measurement": "viability, T/C", "setting": "compound 10 µM", "value": "21.8% and 31.3%"}, {"measurement": "IC50", "setting": "curve of compound", "value": "1.35 µM and 1.61 µM"}]}, {"molecule": "COc1cccc2c1C(=O)c1c(O)c3c(c(O)c1C2=O)CC(O)(C(=O)CO)CC3OC1CC(N)C(O)C(C)O1", "note": "(stereo not drawn)", "values": [{"measurement": "viability, T/C", "setting": "compound 0.0316 µM", "value": "79.4% and 65.2%"}, {"measurement": "viability, T/C", "setting": "compound 0.1 µM", "value": "51.3% and 43.7%"}, {"measurement": "viability, T/C", "setting": "compound 0.316 µM", "value": "107% and 88.3%"}, {"measurement": "viability, T/C", "setting": "compound 1 µM", "value": "31.9% and 12.3%"}, {"measurement": "viability, T/C", "setting": "compound 3.16 µM", "value": "12.3% and 14.2%"}, {"measurement": "viability, T/C", "setting": "compound 10 µM", "value": "4.08% and 10.9%"}, {"measurement": "IC50", "setting": "curve of compound", "value": "0.644 µM and 0.445 µM"}]}, {"molecule": "C=CC(=O)N1CCN(c2nc(=O)n(-c3c(C)ccnc3C(C)C)c3nc(-c4c(O)cccc4F)c(F)cc23)C(C)C1", "note": "(stereo not drawn) + CN1CCN(c2cc(C(=O)Nc3cc4cc(-c5cnn(C)c5)ccc4cn3)ccn2)CC1", "values": [{"measurement": "IC50", "setting": "curve of first compound, second compound 0.0316 µM", "value": "> 10", "unit": "µM"}, {"measurement": "IC50", "setting": "curve of first compound, second compound 0.1 µM", "value": "> 10", "unit": "µM"}, {"measurement": "IC50", "setting": "curve of first compound, second compound 0.316 µM", "value": "< 0.0316", "unit": "µM"}, {"measurement": "IC50", "setting": "curve of first compound, second compound 1 µM", "value": "< 0.0316", "unit": "µM"}, {"measurement": "IC50", "setting": "curve of first compound, second compound 3.16 µM", "value": "< 0.0316", "unit": "µM"}, {"measurement": "IC50", "setting": "curve of first compound, second compound 10 µM", "value": "< 0.0316", "unit": "µM"}, {"measurement": "viability, T/C", "setting": "second compound 0.0316 µM, first compound 0.0316 µM", "value": 104, "unit": "%"}, {"measurement": "viability, T/C", "setting": "second compound 0.0316 µM, first compound 0.1 µM", "value": 89.4, "unit": "%"}, {"measurement": "viability, T/C", "setting": "second compound 0.0316 µM, first compound 0.316 µM", "value": 110, "unit": "%"}, {"measurement": "viability, T/C", "setting": "second compound 0.0316 µM, first compound 1 µM", "value": 113, "unit": "%"}, {"measurement": "viability, T/C", "setting": "second compound 0.0316 µM, first compound 3.16 µM", "value": 132, "unit": "%"}, {"measurement": "viability, T/C", "setting": "second compound 0.0316 µM, first compound 10 µM", "value": 140, "unit": "%"}, {"measurement": "viability, T/C", "setting": "second compound 0.1 µM, first compound 0.0316 µM", "value": 51.7, "unit": "%"}, {"measurement": "viability, T/C", "setting": "second compound 0.1 µM, first compound 0.1 µM", "value": 65.7, "unit": "%"}, {"measurement": "viability, T/C", "setting": "second compound 0.1 µM, first compound 0.316 µM", "value": 77.1, "unit": "%"}, {"measurement": "viability, T/C", "setting": "second compound 0.1 µM, first compound 1 µM", "value": 81.3, "unit": "%"}, {"measurement": "viability, T/C", "setting": "second compound 0.1 µM, first compound 3.16 µM", "value": 86.2, "unit": "%"}, {"measurement": "viability, T/C", "setting": "second compound 0.1 µM, first compound 10 µM", "value": 71.4, "unit": "%"}, {"measurement": "viability, T/C", "setting": "second compound 0.316 µM, first compound 0.0316 µM", "value": 32.5, "unit": "%"}, {"measurement": "viability, T/C", "setting": "second compound 0.316 µM, first compound 0.1 µM", "value": 38.2, "unit": "%"}, {"measurement": "viability, T/C", "setting": "second compound 0.316 µM, first compound 0.316 µM", "value": 41.5, "unit": "%"}, {"measurement": "viability, T/C", "setting": "second compound 0.316 µM, first compound 1 µM", "value": 37.5, "unit": "%"}, {"measurement": "viability, T/C", "setting": "second compound 0.316 µM, first compound 3.16 µM", "value": 51, "unit": "%"}, {"measurement": "viability, T/C", "setting": "second compound 0.316 µM, first compound 10 µM", "value": 31.4, "unit": "%"}, {"measurement": "viability, T/C", "setting": "second compound 1 µM, first compound 0.0316 µM", "value": 6.64, "unit": "%"}, {"measurement": "viability, T/C", "setting": "second compound 1 µM, first compound 0.1 µM", "value": 5.37, "unit": "%"}, {"measurement": "viability, T/C", "setting": "second compound 1 µM, first compound 0.316 µM", "value": 5.91, "unit": "%"}, {"measurement": "viability, T/C", "setting": "second compound 1 µM, first compound 1 µM", "value": 5.6, "unit": "%"}, {"measurement": "viability, T/C", "setting": "second compound 1 µM, first compound 3.16 µM", "value": 8.96, "unit": "%"}, {"measurement": "viability, T/C", "setting": "second compound 1 µM, first compound 10 µM", "value": 6.5, "unit": "%"}, {"measurement": "viability, T/C", "setting": "second compound 3.16 µM, first compound 0.0316 µM", "value": 9.3, "unit": "%"}, {"measurement": "viability, T/C", "setting": "second compound 3.16 µM, first compound 0.1 µM", "value": 9.76, "unit": "%"}, {"measurement": "viability, T/C", "setting": "second compound 3.16 µM, first compound 0.316 µM", "value": 6.13, "unit": "%"}, {"measurement": "viability, T/C", "setting": "second compound 3.16 µM, first compound 1 µM", "value": 4.78, "unit": "%"}, {"measurement": "viability, T/C", "setting": "second compound 3.16 µM, first compound 3.16 µM", "value": 5.85, "unit": "%"}, {"measurement": "viability, T/C", "setting": "second compound 3.16 µM, first compound 10 µM", "value": 4.66, "unit": "%"}, {"measurement": "viability, T/C", "setting": "second compound 10 µM, first compound 0.0316 µM", "value": 2.59, "unit": "%"}, {"measurement": "viability, T/C", "setting": "second compound 10 µM, first compound 0.1 µM", "value": 1.73, "unit": "%"}, {"measurement": "viability, T/C", "setting": "second compound 10 µM, first compound 0.316 µM", "value": 2.2, "unit": "%"}, {"measurement": "viability, T/C", "setting": "second compound 10 µM, first compound 1 µM", "value": 1.51, "unit": "%"}, {"measurement": "viability, T/C", "setting": "second compound 10 µM, first compound 3.16 µM", "value": 4.91, "unit": "%"}, {"measurement": "viability, T/C", "setting": "second compound 10 µM, first compound 10 µM", "value": 3.2, "unit": "%"}]}]}
